Read-outs that look alike come from different tables or passages of the source.
Legend:
[1] = tested on: yeast-mold isolate (1/3 black fungal isolate, 1/3 gray fungal isolate, 1/3 Yarrowia lipolytica); type: cell-based, yeast-mold isolate from a beverage plant
[2] = tested on: yeast-mold isolate; assay: Coupon testing for bio-load removal study (five step sanitation program); type: cell-based, yeast-mold isolate from a beverage plant; conditions: silicon rubber coupon pre-treated with the labelled agent, inoculated, then five step sanitation program (2600 ppm Vortexx, 40° C., 15 minutes)
Description: The same yeast-mold isolates as in the antimicrobial treatment method were grown up for inoculation onto the coupons. The coupons were inoculated with the isolates. The coupons were then subjected to the inventive five step method involving an initial rinse step, a detergent wash step, an intermediate rinse step, an antimicrobial treatment step, and a final rinse step. The coupons were first placed in 1000 ml of ambient water for 10 minutes. The coupons were then placed in 1000 ml of a wash solution for 60 minutes. The coupons were then placed in a 2600 ppm solution Vortexx™ at 40° C. for 15 minutes. Finally, the coupons were placed in a jar containing sterile water. The carriers were than placed in 25 ml of 0.5% sodium thiosulfate neutralizing solution to suspend any surviving organisms. The neutralizing solution was then filtered and plated on Sabouraud's Dextrose Agar in order to determine the number of surviving organisms.

[3] = 185 F. water, 15 minute contact, Stainless Steel coupon, no pre-treatment

Structure (SMILES): O [185 F. Water, water]
- Percent Reduction ([1]; 185 F. water, 15-minute contact, BUNA N coupon, pH 2.3 phosphoric acid 104 F. 2 weeks): >99.5%
- Percent Reduction ([1]; 185 F. water, 15-minute contact, BUNA N coupon, pH 13 caustic 185 F. 2 weeks): >99.8%
- Filter Survivors [1, 3]: <1 CFU
- Percent Reduction [1, 3]: >99.9%
- log reduction ([1]; stainless steel coupon, not preconditioned, Table 2 treatments): 3 log
- Percent Reduction (avg of 3) [2]: 38.3%
- log reduction ([2]; listed as 185° F. Water): <1 log
- log reduction ([2]; listed as 185° F. water): 1 log
